Laboratory results reported in PubChem BioAssay AID248 (DTP/NCI, 2004).
Where “and” joins values, the source holds several entries; their conditions need not be identical. Equal values may be shown once. Toxic doses and inconclusive results are not listed. No stated cut-off is given here; in the data, active means T/C of 150% or more; inactive means T/C below 125%.

Test system: L1210 leukemia ip in BDF1 mice, survival T/C
Experiment: NCI In Vivo Anticancer Drug Screen. Data for tumor model L1210 Leukemia (intraperitoneal) in B6D2F1 (BDF1) mice
Settings: endpoint: mean survival time, higher = longer survival
Method in brief: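 Each compound was tested against a transplantable tumor grown in mice. The endpoint was survival, with treated animals benchmarked against vehicle controls as a simple ratio.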

[1] = dose: 100.0 mg/kg/injection, schedule: Q01DX001 (ip), vehicle: other
[2] = dose: 200.0 mg/kg/injection, schedule: Q01DX001 (ip), vehicle: other
[3] = dose: 400.0 mg/kg/injection, schedule: Q01DX001 (ip), vehicle: other
[4] = dose: 100.0 mg/kg/injection, schedule: Q01DX001 (ip), vehicle: saline
[5] = dose: 200.0 mg/kg/injection, schedule: Q01DX001 (ip), vehicle: saline
[6] = dose: 50.0 mg/kg/injection, schedule: Q01DX001 (ip), vehicle: saline
[7] = dose: 100.0 mg/kg/injection, schedule: Q04DX003 (ip), vehicle: Klucel (hydroxypropylcellulose) (HPC)
[8] = dose: 200.0 mg/kg/injection, schedule: Q04DX003 (ip), vehicle: Klucel (hydroxypropylcellulose) (HPC)
[9] = dose: 400.0 mg/kg/injection, schedule: Q04DX003 (ip), vehicle: Klucel (hydroxypropylcellulose) (HPC)
[10] = dose: 100.0 mg/kg/injection, schedule: Q04DX002 (ip), vehicle: Klucel (hydroxypropylcellulose) (HPC)
[11] = dose: 200.0 mg/kg/injection, schedule: Q04DX002 (ip), vehicle: Klucel (hydroxypropylcellulose) (HPC)
[12] = dose: 400.0 mg/kg/injection, schedule: Q04DX002 (ip), vehicle: Klucel (hydroxypropylcellulose) (HPC)
[13] = dose: 100.0 mg/kg/injection, schedule: Q01DX009 (ip), vehicle: Klucel (hydroxypropylcellulose) (HPC)
[14] = dose: 200.0 mg/kg/injection, schedule: Q01DX009 (ip), vehicle: Klucel (hydroxypropylcellulose) (HPC)
[15] = dose: 400.0 mg/kg/injection, schedule: Q01DX009 (ip), vehicle: Klucel (hydroxypropylcellulose) (HPC)
[16] = dose: 100.0 mg/kg/injection, schedule: Q04DX003 (ip), vehicle: saline with Tween-80
[17] = dose: 200.0 mg/kg/injection, schedule: Q04DX003 (ip), vehicle: saline with Tween-80
[18] = dose: 400.0 mg/kg/injection, schedule: Q04DX003 (ip), vehicle: saline with Tween-80
[19] = dose: 50.0 mg/kg/injection, schedule: Q01DX001 (ip), vehicle: carboxymethylcellulose (CMC)
[20] = dose: 100.0 mg/kg/injection, schedule: Q01DX001 (ip), vehicle: carboxymethylcellulose (CMC)
[21] = dose: 200.0 mg/kg/injection, schedule: Q01DX001 (ip), vehicle: carboxymethylcellulose (CMC)
[22] = dose: 100.0 mg/kg/injection, schedule: Q04DX003 (ip), vehicle: saline
[23] = dose: 200.0 mg/kg/injection, schedule: Q04DX003 (ip), vehicle: saline
[24] = dose: 400.0 mg/kg/injection, schedule: Q04DX003 (ip), vehicle: saline
[25] = dose: 400.0 mg/kg/injection, schedule: Q01DX001 (ip), vehicle: saline

Measured: T/C

CC[S][Hg][Cl]
inactive: dose: 3.0 mg/kg/injection, schedule: Q01DX009 (ip), vehicle: saline with Tween-80 92 % of control | dose: 6.0 mg/kg/injection, schedule: Q01DX009 (ip), vehicle: saline with Tween-80 101 % of control | dose: 12.5 mg/kg/injection, schedule: Q04DX003 (ip), vehicle: saline with Tween-80 101 % of control

Cc1ccc(-c2ccccc2)n1-c1ccccc1O
inactive: dose: 50.0 mg/kg/injection, schedule: Q01DX001 (ip), vehicle: other 104 % of control | [1] 102 % of control | [2] 96 % of control | [3] 98 % of control

COc1ccc(C(O)C2c3c(cc4c(c3OC)OCO4)CCN2C)c(CO)c1OC (centres undefined)
inactive: dose: 75.0 mg/kg/injection, schedule: Q01DX001 (ip), vehicle: carboxymethylcellulose (CMC) 100 % of control | dose: 150.0 mg/kg/injection, schedule: Q01DX001 (ip), vehicle: carboxymethylcellulose (CMC) 105 % of control

N#CC(SC(=N)N)c1ccccc1 (centres undefined)
inactive: [4] 103 % of control | [5] 96 % of control

CN(C)CCCN1CC2C3CCCCC3=C3CCCCC3C2C1 (centres undefined)
inactive: [6] 98 % of control

O=N[O-].O=N[O-].[Co].[NH-]CC[N-]CC[N-]CC[NH-]
inactive: [6] 104 % of control

C(=N\N1CCN(/N=C/c2ccccc2)C1c1ccccc1)/c1ccccc1
inactive: [7] 106 % of control | [8] 94 % of control | [9] 101 % of control

COC1OC(COC(=S)SCC2OC(OC)C(OC)C(OC)C2OC)C(OC)C(OC)C1OC (centres undefined)
inactive: [10] 100 % of control | [11] 93 % of control and 92 % of control | [12] 96 % of control and 89 % of control

CCN1C(=O)/C(=C\c2ccccc2)N=C1C
inactive: dose: 12.5 mg/kg/injection, schedule: Q01DX009 (ip), vehicle: DMSO 92 % of control | dose: 25.0 mg/kg/injection, schedule: Q01DX009 (ip), vehicle: DMSO 94 % of control | dose: 50.0 mg/kg/injection, schedule: Q01DX009 (ip), vehicle: DMSO 96 % of control

NC(=O)c1ccccc1C(N)=O
inactive: [13] 97 % of control | [7] 100 % of control | [14] 98 % of control | [8] 102 % of control | [15] 93 % of control | [9] 100 % of control

C/C=C/Cn1cnc2c1c(=O)n(C)c(=O)n2C
inactive: [16] 95 % of control | [17] 95 % of control

Cc1ccc(Cl)cc1NC(=O)Nc1ccc(C)c(NC(=O)Nc2cc(Cl)ccc2C)c1
inactive: dose: 100.0 mg/kg/injection, schedule: Q01DX009 (ip), vehicle: saline with Tween-80 87 % of control | [16] 88 % of control | dose: 200.0 mg/kg/injection, schedule: Q01DX009 (ip), vehicle: saline with Tween-80 92 % of control | [17] 86 % of control | dose: 400.0 mg/kg/injection, schedule: Q01DX009 (ip), vehicle: saline with Tween-80 98 % of control | [18] 90 % of control

CCC(C)(C)C(=O)Nc1cccc(O)c1
inactive: [16] 92 % of control | [17] 90 % of control | [18] 95 % of control

O=COCCc1ccccc1
inactive: [13] 102 % of control | [14] 102 % of control | [15] 97 % of control

CCOC(=O)NC(NC(=O)OCC)c1ccc2c(c1)OCO2
inactive: [19] 105 % of control | [20] 96 % of control | [21] 91 % of control | dose: 400.0 mg/kg/injection, schedule: Q01DX001 (ip), vehicle: carboxymethylcellulose (CMC) 94 % of control

CCCCCCCCCCCCCC#N
inactive: [1] 101 % of control | [2] 92 % of control | [3] 92 % of control

COc1ccc(Cl)cc1NC(=O)C(Br)C(Br)c1ccccc1 (centres undefined)
inactive: [13] 100 % of control | [14] 97 % of control | [15] 86 % of control

C=CC[P+](CC)(c1ccccc1)c1ccccc1
inactive: dose: 3.13 mg/kg/injection, schedule: Q01DX009 (ip), vehicle: saline 97 % of control

Cn1c(O)c(C=N)c(=O)[nH]c1=O
inactive: dose: 100.0 mg/kg/injection, schedule: Q01DX009 (ip), vehicle: saline 86 % of control | [22] 90 % of control | dose: 200.0 mg/kg/injection, schedule: Q01DX009 (ip), vehicle: saline 88 % of control | [23] 92 % of control | dose: 400.0 mg/kg/injection, schedule: Q01DX009 (ip), vehicle: saline 86 % of control | [24] 90 % of control

OC(CC(O)(C(F)(F)Cl)C(F)(F)Cl)c1cccs1 (centres undefined)
inactive: [22] 93 % of control | [23] 95 % of control | [24] 105 % of control

O=[N+]([O-])c1ccc(Oc2ccccc2)c(S(=O)(=O)O)c1
inactive: [16] 103 % of control | [17] 94 % of control | [18] 97 % of control

Cc1cccc(/C=N\NC(=O)CCCC(=O)N/N=C/c2cccc(C)n2)n1
inactive: [19] 88 % of control | [20] 90 % of control

CC(=O)OC1COC(n2cnc3c(N4CCCCC4)ncnc32)C(OC(C)=O)C1OC(C)=O (centres undefined)
inactive: [4] 100 % of control | [5] 96 % of control | [25] 96 % of control

Nc1ncn(C(=S)Nc2ccccc2)n1
inactive: [6] 102 % of control | [4] 98 % of control | [5] 98 % of control | [25] 98 % of control

C/C(=N/N)c1ccccc1O
inactive: dose: 25.6 mg/kg/injection, schedule: Q04DX002 (ip), vehicle: saline 88 % of control | dose: 160.0 mg/kg/injection, schedule: Q04DX002 (ip), vehicle: saline 92 % of control

O=C(O)c1cccc(N2C(=O)CSC2=S)c1
inactive: dose: 25.0 mg/kg/injection, schedule: Q04DX002 (ip), vehicle: Klucel (hydroxypropylcellulose) (HPC) 94 % of control | dose: 50.0 mg/kg/injection, schedule: Q04DX002 (ip), vehicle: Klucel (hydroxypropylcellulose) (HPC) 93 % of control and 91 % of control | [10] 93 % of control and 102 % of control | [11] 88 % of control

Cc1ccc(S(=O)(=O)OC2CCC(N3C(=O)c4ccccc4C3=O)CC2)cc1 (centres undefined)
inactive: dose: 100.0 mg/kg/injection, schedule: Q01DX001 (ip), vehicle: saline with Tween-80 100 % of control | dose: 200.0 mg/kg/injection, schedule: Q01DX001 (ip), vehicle: saline with Tween-80 102 % of control | dose: 400.0 mg/kg/injection, schedule: Q01DX001 (ip), vehicle: saline with Tween-80 98 % of control

O=[N+]([O-])c1cccc(S(=O)(=O)O)c1.[Fe]
inactive: [22] 95 % of control | [23] 89 % of control

N#CCc1ccc(N=Nc2c(N)nc(N)[nH]c2=O)cc1
inactive: [4] 98 % of control | [5] 96 % of control | [25] 96 % of control

CCOC(=O)c1ccc(NS(=O)(=O)c2ccc(NC(C)=O)cc2)cc1
inactive: [10] 88 % of control | [11] 94 % of control | [12] 103 % of control

Clc1ncnc2scnc12
inactive: [19] 102 % of control | [20] 91 % of control | [21] 98 % of control

O=[N+]([O-])c1cc2c(nc3ccccn32)c2ccccc12
inactive: [6] 97 % of control | [4] 96 % of control | [5] 97 % of control

O=C(N/N=C/c1ccc(Cl)cc1)c1cccc([N+](=O)[O-])c1
inactive: [13] 94 % of control | [14] 94 % of control | [15] 95 % of control

C=C1N2CCC(CC2)C1(O)c1ccccc1 (centres undefined)
inactive: dose: 3.13 mg/kg/injection, schedule: Q04DX003 (ip), vehicle: saline 92 % of control | dose: 6.25 mg/kg/injection, schedule: Q04DX003 (ip), vehicle: saline 103 % of control | dose: 12.5 mg/kg/injection, schedule: Q04DX003 (ip), vehicle: Klucel (hydroxypropylcellulose) (HPC) 103 % of control | dose: 12.5 mg/kg/injection, schedule: Q04DX003 (ip), vehicle: saline 97 % of control

CN(Cc1c(S)ccc2ccccc12)Cc1c(S)ccc2ccccc12
inactive: [4] 94 % of control | [5] 98 % of control | [25] 96 % of control

O=C(Nc1cc(C(F)(F)F)ccc1Cl)Nc1cc(Cl)c(Oc2ccc(Cl)cc2)cc1S(=O)(=O)O
inactive: dose: 100.0 mg/kg/injection, schedule: Q04DX003 (ip), vehicle: saline sonified 105 % of control | dose: 200.0 mg/kg/injection, schedule: Q04DX003 (ip), vehicle: saline sonified 100 % of control
